Experimental data taken from US11401262B2, “Dimeric contrast agents” (BRACCO IMAGING S.P.A., priority 2015, dated 2022).

Test: Relaxometric properties: longitudinal relaxivity r1p measurement
Assay type: physicochemical
Conditions: per mM Gd; for r1p at 0.47 T 37° C., human plasma / r1p at 0.47 T 37° C., saline: 0.47 T (20 MHz); for r1p at 0.47 T 37° C., saline / r1p at 1.41 T 37° C., saline: physiologic solution; for r1p at 1.41 T 37° C., human plasma / r1p at 1.41 T 37° C., saline: 1.41 T (60 MHz)
Method: The relaxometric properties of some representative complex compounds according to the invention have been determined at different magnetic field strengths, e.g. including 0.47 and 1.41 T, at 37° C. and in different media (physiologic solution and human plasma) and compared with relaxivity values measured, at the same conditions, for some Gd-Complex of the market having an analogous cyclic coordination cage.
The longitudinal water proton relaxation rate (R1=1/T1) was measured at 0.47 T with a Minispec MQ-20 spectrometer (Bruker Biospin, Germany) operating at a proton Larmor frequency of 20 MHz; MR experiments at 1.41 T were performed using a Minispec MQ-60 spectrometer (Bruker Biospin, Germany) operating at a proton Larmor frequency of 60 MHz.
All test articles were used as supplied and diluted in the selected medium (physiologic solution or human plasma) by weighting the required amount of paramagnetic chelated complex to get a 5 or 10 mM starting solution.
Five different concentration samples (0.1, 0.25, 0.5, 0.75 and 1 mM) for each medium have been prepared by further dilution of the starting 5 or 10 mM solution.
Relaxivity measurements were performed at 0.47 T and 1.41 T at a preset temperature sample of 37° C., kept constant by means of a thermostatic bath connected to the sample holder of the spectrometer. The five sample solutions have been preliminary pre-heated at 37° C. in an external thermostatic bath and then left 10 minutes inside the internal bath to assure the stabilization of the temperature. Longitudinal relaxation time T1 was measured by means of a standard inversion recovery sequence, where the inversion time (TI) was varied from 10 ms to at least 5 times T1 in 15 steps. Statistical analysis (mono-exponential fitting for T1 measurement, linear fitting for the evaluation of longitudinal relaxivity) was performed by Mathematica® (Wolfram, USA). Errors on the estimated parameters were evaluated by the fitting procedure.

SMILES	r1p at 0.47 T 37° C., human plasma [mM⁻¹ s⁻¹]	r1p at 0.47 T 37° C., saline [mM⁻¹ s⁻¹]	r1p at 1.41 T 37° C., human plasma [mM⁻¹ s⁻¹]	r1p at 1.41 T 37° C., saline [mM⁻¹ s⁻¹]
O=C(O)CN1CCN(CC(=O)O)CCN(CC(O)CN(CC(=O)O)CC(O)CN2CCN(CC(=O)O)CCN(CC(=O)O)CCN(CC(=O)O)CC2)CCN(CC(=O)O)CC1 (stereo not shown)	9.7	8.3	9.2	8.5
O=C(O)CN1CCN(CC(=O)O)CCN(CC(O)CN(CC(O)CN2CCN(CC(=O)O)CCN(CC(=O)O)CCN(CC(=O)O)CC2)CC(O)C(O)C(O)C(O)CO)CCN(CC(=O)O)CC1 (stereo not shown)	11.5	9.3	10.8	9.4
O=C(O)CN1CCN(CC(=O)O)CCN(CC(O)CN(CCN(CC(=O)O)CC(O)CN2CCN(CC(=O)O)CCN(CC(=O)O)CCN(CC(=O)O)CC2)CC(=O)O)CCN(CC(=O)O)CC1 (stereo not shown)	10.6	7.3	10.2	7.5
O=C(O)CN1CCN(CC(=O)O)CCN(CC(O)CN(CC(O)CN2CCN(CC(=O)O)CCN(CC(=O)O)CCN(CC(=O)O)CC2)CP(=O)(O)O)CCN(CC(=O)O)CC1 (stereo not shown) [Chelate Complex 2]	12.0	9.0	11.3	9.3
